{"source": "paper PMC7125202", "about": "“Targeting of radioactive platinum-bisphosphonate anticancer drugs to bone of high metabolic activity” (Scientific Reports, 2020)", "key": {"[1]": {"tested_on": "lateral line neuromast hair cells", "test": "Ototoxicity assay, DASPEI staining", "type": "in vivo, zebrafish (Danio rerio)", "conditions": "48 h post treatment, 5, 10 and 50 µM", "procedure": "The lateral line neuromast hair cells in embryos were stained with a vital dye to analyse the loss of hair cells after Pt-BP treatment. Cisplatin was used as a control, as it was known to affect hair cells in humans. The fluorescent dye 2-[4-(dimethylamino)styryl]-N-ethylpyridinium iodide (DASPEI) [Molecular Probes, Eugene, OR] was used to stain hair cells in the neuromast as described previously. Larvae were incubated in embryo medium containing 0.005% DASPEI for 15 min, anesthetized in Tricaine MS222 (10 µg/ml) for 5 min, rinsed once in fresh embryo medium, and imaged using Vertebrate automated screening technology (VAST, Union Biometrica), combined with high-speed and super-resolution Zeiss cell observer spinning disk confocal system. The quantification of number of neuromast hair cells in the treated embryos was done manually with confocal microscopy (Zeiss LSM780)."}, "[2]": {"conditions": "cited from earlier work"}, "[3]": {"test": "In vivo biodistribution of cold Pt-species, Pt quantified by ICP-MS", "design": "species or system C57Bl/6N mice", "conditions": "24 h after i.v. injection", "procedure": "The Pt-BP and Pt(NO3)2(en) complexes were administered intravenously in the tail vein of C57BL/6N mice (n = 5 per each platinum complex). Sterile saline solution (0.9% NaCl) was used to dissolve platinum complexes. The concentration of injected Pt-BP or Pt(NO3)2(en) solutions was 2.5 mM platinum, calculated based on the maximum tolerated dose for cisplatin of 6 mg per kg body weight of the mice[37]. The mice were euthanized with CO2 24 h after injection, after which blood (approximately 600 mg per mouse), liver, spleen, kidneys, heart, lungs, and bones (femur, humerus, tibia, and spine) were harvested. Approximately half of the tissues were prepared for inductively coupled plasma-mass spectrometry (ICP-MS) analysis by digestion in 65% (v/v) nitric acid at 75 °C for approximately three days until the tissues were digested completely. Each tissue was cut into three samples and the samples were weighed prior to digestion in nitric acid. The digested solutions were diluted with up to 6 ml of Milli-Q water to obtain 2% (v/v) nitric acid in order to measure platinum concentrations by ICP-MS (X series I, Thermo Electron Corporation). The detection limit for determining platinum concentration with ICP-MS was 1 ppb. The standard solutions were prepared from 1000 mg·1^−1 platinum ICP standard Certipur (1.70341.0100, Merck) ranging from 1 ppb to 2500 ppb. The measured isotopes for platinum were ^194Pt, ^195Pt, ^196Pt, and ^198Pt. Furthermore, scandium (^45Sc) was added as an internal standard, which was prepared with 1000 mg·1^−1 scandium standard Certipur (1.19513.0100, Merck) to correct for matrix effects and long-term fluctuations of the measurement signal. The platinum concentrations in the various tissues were calculated relative to 1 mg of the specific tissue and represented as ng Pt/mgtissue. Three replicates of Pt-BP and Pt(NO3)2(en) solutions with volumes and platinum concentrations identical to the solutions injected to the mice (200 µl and 2.5 mM platinum, respectively) were also analyzed for their platinum content using ICP-MS as control. The percentage of injected dose (%ID) of Pt-BP and Pt(NO3)2(en) in each mouse tissue 24 h after injection was calculated by dividing the total amount of platinum per tissue through the total amount of platinum detected in the control solutions[52]."}, "zebrafish embryos": {"tested_on": "zebrafish embryos", "test": "Phenotypic assessment of drug-treated zebrafish embryos", "type": "in vivo, zebrafish (Danio rerio)", "conditions": "up to a concentration of 100 µM, until 2 days post treatment", "procedure": "The zebrafish (Danio rerio) strains were kept under standard conditions (28 °C in E3 buffer) until 48 hours post fertilization (hpf) as described previously. All animal experiments were conducted at larval stages before the point of independent feeding and were in agreement with the animal protection law (Tierschutzgesetz).\n48 hpf wildtype embryos were separated into 6 groups (n = 20 embryos/group), i.e., control (untreated) and embryos treated with 5 µM, 10 µM, 50 µM, and 100 µM Pt-BP as well as 30 µM cisplatin. Both types of compounds were added externally to the medium and the embryos were incubated at 33 °C for the duration of the experiment. The embryos were assessed each day for phenotypic toxicity until 2 days post treatment (48 hpt) and imaged live in an Olympus MVX10 microscope."}}, "note": "“Also recorded” adds a separate entry of the source."}
{"smiles": "NCCN.NCCN.O.O.O.O=S(=O)([O-])O.[NH3+]CC1(O)P2(=O)[O][Pt][O]P1(=O)[O][Pt][O]2", "note": "(stereo not shown) [Pt-BP, dinuclear bis<ethylenediamineplatinum(II) > -2-amino-1-hydroxyethane-1,1-diyl-bisphosphonate complex]", "values": [{"measurement": "ototoxic effect (lateral line neuromast hair cell quantification)", "setting": "[1]", "value": "dose-dependent ototoxic effect"}, {"measurement": "stability in neutral aqueous solution", "setting": "[2]; pH 7.0, room temperature", "value": "stable in neutral aqueous solution (pH 7.0, room temperature) for several months"}, {"measurement": "stability in water at pH > 8.0", "setting": "[2]; pH > 8.0", "value": "rearranges rather than decomposes"}, {"measurement": "higher affinity for bone compared to Pt(NO3)2(en)", "setting": "[3]", "value": 4.5, "unit": "fold"}, {"measurement": "Pt uptake in hard tissue", "setting": "[3]; 2.5 mM Pt", "value": "12.18 ± 0.56", "unit": "%ID/g"}, {"measurement": "Pt uptake in kidney", "setting": "[3]; 2.5 mM Pt", "value": "5.70 ± 0.15", "unit": "%ID/g"}, {"measurement": "Pt uptake in liver", "setting": "[3]; 2.5 mM Pt", "value": "2.34 ± 0.17", "unit": "%ID/g"}, {"measurement": "Pt uptake in spleen", "setting": "[3]; 2.5 mM Pt", "value": "1.22 ± 0.12", "unit": "%ID/g"}, {"measurement": "Pt accumulation in hard tissue (bone)", "setting": "[3]; 2.5 mM Pt, normalized for tissue weight", "value": "~ 3 ng Pt/mg tissue"}, {"measurement": "visible phenotypic effects", "setting": "zebrafish embryos", "value": "did not show any phenotypic abnormality; also recorded: no visible phenotypic effects"}]}
